Our source for the IC50 values is US20260274829A1, “NEW E3 UBIQUITIN LIGASE LIGAND, PROTEIN DEGRADATION AGENT AND USE THEREOF” (GLUETACS THERAPEUTICS (SHANGHAI) CO., LTD., priority 2023, published 2026).

Broadly, the IC50 is the concentration at which inhibition is half-maximal.

T1 sequence (Q96SW2 whole entry): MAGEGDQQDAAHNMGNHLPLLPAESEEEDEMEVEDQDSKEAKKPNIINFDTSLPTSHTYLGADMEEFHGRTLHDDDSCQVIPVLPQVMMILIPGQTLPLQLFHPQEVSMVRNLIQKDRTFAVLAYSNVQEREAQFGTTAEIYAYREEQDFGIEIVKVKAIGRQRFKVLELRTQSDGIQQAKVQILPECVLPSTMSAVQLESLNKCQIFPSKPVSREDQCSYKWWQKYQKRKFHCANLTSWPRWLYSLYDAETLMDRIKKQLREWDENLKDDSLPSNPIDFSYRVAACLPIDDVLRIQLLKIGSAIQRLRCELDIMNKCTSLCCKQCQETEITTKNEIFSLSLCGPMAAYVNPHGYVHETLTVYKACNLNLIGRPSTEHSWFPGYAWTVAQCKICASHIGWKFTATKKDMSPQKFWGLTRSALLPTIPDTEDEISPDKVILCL

The assay addresses T1, human Cereblon WT GST-tagged protein (Homo sapiens, UniProt Q96SW2).
T1 construct: purchased CISBIO 64BDCRBNPEH
The assay can be described thus: CRBN binding, HTRF CEREBLON BINDING kit. Particulars: CRBN binding, HTRF CEREBLON BINDING kit. The procedure, abridged:
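HTRF competition in which test compounds displace a Thalidomide-Re tracer from GST-tagged human Cereblon WT, detected with a GST Eu antibody. Incubation lasted 3 hours at room temperature, with emission read at 620 and 665 nm. Inhibition rate was derived from 665/620 ratios relative to blank and solvent control wells.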
`O=C1CCN(c2ccc(CN3C[C@@H]4C[C@H]3CN4c3ccc(-c4cc(F)c5c(c4)C(=O)N(C(C(=O)Nc4nccs4)c4ncn6c4CCC6)C5)cc3)cc2)C(=O)N1` (stereo partly drawn) [GT-05116, 2-(6,7-dihydro-5H-pyrrolo[1,2-c]imidazol-1-yl)-2-(6-(4-((1S,4S)-5-(4-(2,4-dioxotetrahydropyrimidin-1(2H)-yl)benzyl)-2,5-diazabicyclo[2.2.1]heptan-2-yl)phenyl)-4-fluoro-1-oxoisoindolin-2-yl)-N-(thiazol-2-yl)acetamide] had an IC50 of 500 to 1000 nM. Molecule `O=C1CCN(c2cccc(CN3C[C@@H]4C[C@H]3CN4c3ccc(-c4cc(F)c5c(c4)C(=O)N(C(C(=O)Nc4nccs4)c4ncn6c4CCC6)C5)cc3)c2)C(=O)N1` (stereo partly drawn) [GT-05117, 2-(6,7-dihydro-5H-pyrrolo[1,2-c]imidazol-1-yl)-2-(6-(4-((1S,4S)-5-(3-(2,4-dioxotetrahydropyrimidin-1(2H)-yl)benzyl)-2,5-diazabicyclo[2.2.1]heptan-2-yl)phenyl)-4-fluoro-1-oxoisoindolin-2-yl)-N-(thiazol-2-yl)acetamide] gave an IC50 of 500 to 1000 nM. `O=C1CCC(Nc2cccc(CN3C[C@@H]4C[C@H]3CN4c3ccc(-c4cc(F)c5c(c4)C(=O)N(C(C(=O)Nc4nccs4)c4ncn6c4CCC6)C5)cc3)c2)C(=O)N1` (stereo partly drawn) [GT-05118, 2-(6,7-dihydro-5H-pyrrolo[1,2-c]imidazol-1-yl)-2-(6-(4-((1S,4S)-5-(3-((2,6-dioxopiperidin-3-yl)amino)benzyl)-2,5-diazabicyclo[2.2.1]heptan-2-yl)phenyl)-4-fluoro-1-oxoisoindolin-2-yl)-N-(thiazol-2-yl)acetamide] displayed an IC50 of 500 to 1000 nM.

Molecule `O=C1CCN(c2ccc(CN3C[C@@H]4C[C@H]3CN4c3ccc(-c4cc(F)c5c(c4)C(=O)N(C(C(=O)Nc4nccs4)c4ncn6c4CCC6)C5)cc3)nc2)C(=O)N1` (stereo partly drawn) [GT-05119, 2-(6,7-dihydro-5H-pyrrolo[1,2-c]imidazol-1-yl)-2-(6-(4-((1S,4S)-5-((5-(2,4-dioxotetrahydropyrimidin-1(2H)-yl)pyridin-2-yl)methyl)-2,5-diazabicyclo[2.2.1]heptan-2-yl)phenyl)-4-fluoro-1-oxoisoindolin-2-yl)-N-(thiazol-2-yl)acetamide] came in with an IC50 of 500 to 1000 nM. `CN(Cc1ccc(C2CCC(=O)NC2=O)cc1)C1CCN(c2ccc(-c3cc(F)c4c(c3)C(=O)N(C(C(=O)Nc3nccs3)c3ncn5c3CCC5)C4)cc2)CC1` (stereo not drawn) [GT-05218, 2-(6,7-dihydro-5H-pyrrolo[1,2-c]imidazol-1-yl)-2-(6-(4-(4-((4-(2,6-dioxopiperidin-3-yl)benzyl)(methyl)amino)piperidin-1-yl)phenyl)-4-fluoro-1-oxoisoindolin-2-yl)-N-(thiazol-2-yl)acetamide]: the IC50 lay in the range of 500 to 1000 nM. In the case of `CN(Cc1ccc(N2CCC(=O)NC2=O)cc1)C1CCN(c2ccc(-c3cc(F)c4c(c3)C(=O)N(C(C(=O)Nc3nccs3)c3ncn5c3CCC5)C4)cc2)CC1` (stereo not drawn) [GT-05219, 2-(6,7-dihydro-5H-pyrrolo[1,2-c]imidazol-1-yl)-2-(6-(4-(4-((4-(2,4-dioxotetrahydropyrimidin-1(2H)-yl)benzyl)(methyl)amino)piperidin-1-yl)phenyl)-4-fluoro-1-oxoisoindolin-2-yl)-N-(thiazol-2-yl)acetamide] it was under 500 nM. In the case of `CN(Cc1cccc(N2CCC(=O)NC2=O)c1)C1CCN(c2ccc(-c3cc(F)c4c(c3)C(=O)N(C(C(=O)Nc3nccs3)c3ncn5c3CCC5)C4)cc2)CC1` (stereo not drawn) [GT-05281, 2-(6,7-dihydro-5H-pyrrolo[1,2-c]imidazol-1-yl)-2-(6-(4-(4-((3-(2,4-dioxotetrahydropyrimidin-1(2H)-yl)benzyl)(methyl)amino)piperidin-1-yl)phenyl)-4-fluoro-1-oxoisoindolin-2-yl)-N-(thiazol-2-yl)acetamide] it was under 500 nM; in that of `CN(Cc1ccc(N2CCC(=O)NC2=O)cn1)C1CCN(c2ccc(-c3cc(F)c4c(c3)C(=O)N(C(C(=O)Nc3nccs3)c3ncn5c3CCC5)C4)cc2)CC1` (stereo not drawn) [GT-05282, 2-(6,7-dihydro-5H-pyrrolo[1,2-c]imidazol-1-yl)-2-(6-(4-(4-(((5-(2,4-dioxotetrahydropyrimidin-1(2H)-yl)pyridin-2-yl)methyl)(methyl)amino)piperidin-1-yl)phenyl)-4-fluoro-1-oxoisoindolin-2-yl)-N-(thiazol-2-yl)acetamide], 500 to 1000 nM.

`CN(Cc1ccc(N2CCC(=O)NC2=O)nc1)C1CCN(c2ccc(-c3cc(F)c4c(c3)C(=O)N(C(C(=O)Nc3nccs3)c3ncn5c3CCC5)C4)cc2)CC1` (stereo not drawn) [GT-05283, 2-(6,7-dihydro-5H-pyrrolo[1,2-c]imidazol-1-yl)-2-(6-(4-(4-(((6-(2,4-dioxotetrahydropyrimidin-1(2H)-yl)pyridin-3-yl)methyl)(methyl)amino)piperidin-1-yl)phenyl)-4-fluoro-1-oxoisoindolin-2-yl)-N-(thiazol-2-yl)acetamide]: the IC50 was 1000 to 1900 nM. `CN(Cc1cccc(NC2CCC(=O)NC2=O)c1)C1CCN(c2ccc(-c3cc(F)c4c(c3)C(=O)N(C(C(=O)Nc3nccs3)c3ncn5c3CCC5)C4)cc2)CC1` (stereo not drawn) [GT-05284, 2-(6,7-dihydro-5H-pyrrolo[1,2-c]imidazol-1-yl)-2-(6-(4-(4-((3-((2,6-dioxopiperidin-3-yl)amino)benzyl)(methyl)amino)piperidin-1-yl)phenyl)-4-fluoro-1-oxoisoindolin-2-yl)-N-(thiazol-2-yl)acetamide] registered an IC50 of under 500 nM. `CC(C)(O)c1cc2nn(C3CCN(Cc4ccc(C5CCC(=O)NC5=O)cc4)CC3)cc2cc1NC(=O)c1cccc(C(F)(F)F)n1` (stereo not drawn) [GT-05753, N-(2-(1-(4-(2,6-dioxopiperidin-3-yl)benzyl)piperidin-4-yl)-6-(2-hydroxypropan-2-yl)-2H-indazol-5-yl)-6-(trifluoromethyl)picolinamide] yielded an IC50 of 500 to 1000 nM. With `CC(C)(O)c1cc2nn(C3CCN(Cc4ccc(N5CCC(=O)NC5=O)cc4)CC3)cc2cc1NC(=O)c1cccc(C(F)(F)F)n1` [GT-05754, N-(2-(1-(4-(2,4-dioxotetrahydropyrimidin-1(2H)-yl)benzyl)piperidin-4-yl)-6-(2-hydroxypropan-2-yl)-2H-indazol-5-yl)-6-(trifluoromethyl)picolinamide], the IC50 lay in the range of 500 to 1000 nM. With `CC(C)(O)c1cc2nn(C3CCN(Cc4cccc(N5CCC(=O)NC5=O)c4)CC3)cc2cc1NC(=O)c1cccc(C(F)(F)F)n1` [GT-05755, N-(2-(1-(3-(2,4-dioxotetrahydropyrimidin-1(2H)-yl)benzyl)piperidin-4-yl)-6-(2-hydroxypropan-2-yl)-2H-indazol-5-yl)-6-(trifluoromethyl)picolinamide], the IC50 is 500 to 1000 nM.

Molecule `CC(C)(O)c1cc2nn(C3CCN(Cc4ccc(N5CCC(=O)NC5=O)cn4)CC3)cc2cc1NC(=O)c1cccc(C(F)(F)F)n1` [GT-05756, N-(2-(1-((5-(2,4-dioxotetrahydropyrimidin-1(2H)-yl)pyridin-2-yl)methyl)piperidin-4-yl)-6-(2-hydroxypropan-2-yl)-2H-indazol-5-yl)-6-(trifluoromethyl)picolinamide] displayed an IC50 of 500 to 1000 nM. On to `CC(C)(O)c1cc2nc(C3CCN(Cc4cccc(N5CCC(=O)NC5=O)c4)CC3)sc2cc1NC(=O)c1cccc(C(F)(F)F)n1` [GT-05765, N-(2-(1-(3-(2,4-dioxotetrahydropyrimidin-1(2H)-yl)benzyl)piperidin-4-yl)-5-(2-hydroxypropan-2-yl)benzo[d]thiazol-6-yl)-6-(trifluoromethyl)picolinamide], for which the half-maximal inhibitory concentration (IC50) is 500 to 1000 nM.

Take `CC(C)(O)c1cc2nc(C3CCN(Cc4ccc(N5CCC(=O)NC5=O)cc4)CC3)oc2cc1NC(=O)c1cccc(C(F)(F)F)n1` [GT-05772, N-(2-(1-(4-(2,4-dioxotetrahydropyrimidin-1(2H)-yl)benzyl)piperidin-4-yl)-5-(2-hydroxypropan-2-yl)benzo[d]oxazol-6-yl)-6-(trifluoromethyl)picolinamide]: the IC50 was 1000 to 1900 nM. With `CC(C)(O)c1cc2nc(C3CCN(Cc4cccc(N5CCC(=O)NC5=O)c4)CC3)oc2cc1NC(=O)c1cccc(C(F)(F)F)n1` [GT-05773, N-(2-(1-(3-(2,4-dioxotetrahydropyrimidin-1(2H)-yl)benzyl)piperidin-4-yl)-5-(2-hydroxypropan-2-yl)benzo[d]oxazol-6-yl)-6-(trifluoromethyl)picolinamide], the IC50 was 500 to 1000 nM. With `CC(C)(O)c1cc2nc(C3CCN(Cc4ccc(N5CCC(=O)NC5=O)cn4)CC3)oc2cc1NC(=O)c1cccc(C(F)(F)F)n1` [GT-05774, N-(2-(1-((5-(2,4-dioxotetrahydropyrimidin-1(2H)-yl)pyridin-2-yl)methyl)piperidin-4-yl)-5-(2-hydroxypropan-2-yl)benzo[d]oxazol-6-yl)-6-(trifluoromethyl)picolinamide], the IC50 was 1000 to 1900 nM. Consider `O=C1CCN(c2ccc(CN3CCC(n4cc(NC(=O)c5cnn6ccc(N7CCOCC7)nc56)c(C(F)F)n4)CC3)cc2)C(=O)N1` [GT-05798, N-(3-(difluoromethyl)-1-(1-(4-(2,4-dioxotetrahydropyrimidin-1(2H)-yl)benzyl)piperidin-4-yl)-1H-pyrazol-4-yl)-5-morpholinopyrazolo[1,5-a]pyrimidine-3-carboxamide], for which the IC50 is under 500 nM. For `O=C1CCN(c2ccc(CN3CCC(n4cc(NC(=O)c5cnn6ccc(N7CCOCC7)nc56)c(C(F)F)n4)CC3)nc2)C(=O)N1` [GT-05799, N-(3-(difluoromethyl)-1-(1-((5-(2,4-dioxotetrahydropyrimidin-1(2H)-yl)pyridin-2-yl)methyl)piperidin-4-yl)-1H-pyrazol-4-yl)-5-morpholinopyrazolo[1,5-a]pyrimidine-3-carboxamide], the IC50 was under 500 nM. With `O=C1CCC(Nc2cccc(CN3CCC(n4cc(NC(=O)c5cnn6ccc(N7CCOCC7)nc56)c(C(F)F)n4)CC3)c2)C(=O)N1` (stereo not drawn) [GT-05801, N-(3-(difluoromethyl)-1-(1-(3-((2,6-dioxopiperidin-3-yl)amino)benzyl)piperidin-4-yl)-1H-pyrazol-4-yl)-5-morpholinopyrazolo[1,5-a]pyrimidine-3-carboxamide], the 50% inhibitory concentration (IC50) was 500 to 1000 nM.
